The supplement of paper PMC4862054

Assays:
[1] = system: BT-474; conditions: 72 h
Outline: (§1)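 EC50 was fitted from dose-response curves and censored at the highest concentration tested. To build those curves, breast cancer cell lines (20 µl suspension) were seeded into 384-well plates containing compound at 5 concentrations in 10-fold steps over a compound-specific 10,000-fold range and incubated for 72 h. Readouts were CellTox Green fluorescence (485/520 nm) for cell death and then CellTiter-Glo luminescence for viability, with each plate normalised to 0.1 % DMSO and a positive kill control.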

[2] = system: BT-549; conditions: 72 h
Outline: as §1

[3] = system: CAL-120; conditions: 72 h
Outline: as §1

[4] = system: CAL-51; conditions: 72 h
Outline: as §1

[5] = system: CAL-85-1; conditions: 72 h
Outline: as §1

[6] = system: HCC1937; conditions: 72 h
Outline: as §1

[7] = system: Hs578T; conditions: 72 h
Outline: as §1

[8] = system: MCF-10A; conditions: 72 h
Outline: as §1

[9] = system: MDA-MB-231; conditions: 72 h
Outline: as §1

[10] = system: MDA-MB-436; conditions: 72 h
Outline: as §1

[11] = system: MDA-MB-453; conditions: 72 h
Outline: as §1

[12] = system: MDA-MB-468; conditions: 72 h
Outline: as §1

[13] = system: SK-BR-3; conditions: 72 h
Outline: as §1

[14] = system: CAL-148; test: normalised viability (% of control), CellTiter-Blue; higher = more viable cells (about 100 = DMSO control); conditions: incubation time: 72 h
Experimental: (§2)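 DSRT, CellTiter-Blue viability, 72 h incubation. Signal is normalised to DMSO and benzethonium chloride controls. Value is the normalised response at dose 8.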

[15] = system: CAL-51; test: as above; conditions: incubation time: 72 h
Experimental: as §2

[16] = system: CAL-85-1; test: as above; conditions: incubation time: 72 h
Experimental: as §2

[17] = system: DU-4475; test: as above; conditions: incubation time: 72 h
Experimental: as §2

[18] = system: HDQ-P1; test: as above; conditions: incubation time: 72 h
Experimental: as §2

[19] = system: MDA-MB-453; test: as above; conditions: incubation time: 72 h
Experimental: as §2

[20] = system: CAL-148; test: as above; conditions: incubation time: 72 h; remark: listed apart in the source
Experimental: (§3)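 DSRT, CellTiter-Blue viability, 72 h incubation. Signal is normalised to DMSO and benzethonium chloride controls. Value is the normalised response at dose 7.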

[21] = system: CAL-51; test: as above; conditions: incubation time: 72 h; remark: listed apart in the source
Experimental: as §3

[22] = system: CAL-85-1; test: as above; conditions: incubation time: 72 h; remark: listed apart in the source
Experimental: as §3

[23] = system: DU-4475; test: as above; conditions: incubation time: 72 h; remark: listed apart in the source
Experimental: as §3

[24] = system: HDQ-P1; test: as above; conditions: incubation time: 72 h; remark: listed apart in the source
Experimental: as §3

[25] = system: MDA-MB-453; test: as above; conditions: incubation time: 72 h; remark: listed apart in the source
Experimental: as §3

[26] = system: BT-549; test: normalised viability (% of control), CellTiter-Blue; higher = more viable cells (100 = DMSO, 0 = benzethonium chloride kill control); conditions: incubation time: 72 h
Experimental: (§4)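 DSRT, CellTiter-Blue viability, 72 h incubation. Signal is normalised to DMSO and benzethonium chloride controls. Value is the normalised response at dose 1.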

[27] = system: CAL-120; test: as above; conditions: incubation time: 72 h
Experimental: as §4

[28] = system: CAL-51; test: as above; conditions: incubation time: 72 h
Experimental: as §4

[29] = system: DU-4475; test: as above; conditions: incubation time: 72 h
Experimental: as §4

[30] = system: HCC1599; test: as above; conditions: incubation time: 72 h
Experimental: as §4

[31] = system: HCC1937; test: as above; conditions: incubation time: 72 h
Experimental: as §4

[32] = system: HDQ-P1; test: as above; conditions: incubation time: 72 h
Experimental: as §4

[33] = system: Hs578T; test: as above; conditions: incubation time: 72 h
Experimental: as §4

[34] = system: MDA-MB-468; test: as above; conditions: incubation time: 72 h
Experimental: as §4

[35] = system: MFM-223; test: as above; conditions: incubation time: 72 h
Experimental: as §4

[36] = system: SK-BR-3; test: as above; conditions: incubation time: 72 h
Experimental: as §4

`CN1CCN(CCOc2cc(OC3CCOCC3)c3c(Nc4c(Cl)ccc5c4OCO5)ncnc3c2)CC1` [Saracatinib] was tested, and the “EC50, CellTiter-Glo” value [1] was 2010 nM, the “EC50, CellTiter-Glo” value [2] was 1600 nM and the “EC50, CellTiter-Glo” value [3] was greater than 10000 nM. For the same compound, the “EC50, CellTiter-Glo” value [4] was 805 nM, the “EC50, CellTiter-Glo” value [5] was 953 nM and the “EC50, CellTiter-Glo” value [6] was greater than 10000 nM. For the same compound, the “EC50, CellTiter-Glo” value [7] was 2330 nM, the “EC50, CellTiter-Glo” value [8] was 354 nM and the “EC50, CellTiter-Glo” value [9] was 901 nM. For the same compound, the “EC50, CellTiter-Glo” value [10] was greater than 10000 nM, the “EC50, CellTiter-Glo” value [11] was 1360 nM and the “EC50, CellTiter-Glo” value [12] was 1840 nM. The “EC50, CellTiter-Glo” value [13] was 2120 nM, the normalised viability ([14]; 3000 nM) was 65.9% and the normalised viability ([15]; 3000 nM) was 45%. The normalised viability ([16]; 3000 nM) was 29.1%, the normalised viability ([17]; 3000 nM) was 120% and the normalised viability ([18]; 3000 nM) was 20.3%. The normalised viability ([19]; 3000 nM) was 60.9%, the normalised viability ([20]; 1000 nM) was 83.9% and the normalised viability ([21]; 1000 nM) was 60.9%. The normalised viability ([22]; 1000 nM) was 51.4%, the normalised viability ([23]; 1000 nM) was 102% and the normalised viability ([24]; 1000 nM) was 40.6%. The normalised viability ([25]; 1000 nM) was 86.5%, the normalised viability ([26]; 1 nM) was 89.4% and the normalised viability ([27]; 1 nM) was 82.4%. For the same compound, the normalised viability ([28]; 1 nM) was 106%, the normalised viability ([29]; 1 nM) was 107% and the normalised viability ([30]; 1 nM) was 97.2%. For the same compound, the normalised viability ([31]; 1 nM) was 99.4%, the normalised viability ([32]; 1 nM) was 113% and the normalised viability ([33]; 1 nM) was 107%. For the same compound, the normalised viability ([34]; 1 nM) was 104%, the normalised viability ([35]; 1 nM) was 105% and the normalised viability ([36]; 1 nM) was 91.5%.

`O=C1NC(=O)[C@@H](c2cn3c4c(cccc24)CCC3)[C@@H]1c1c[nH]c2ccccc12` [Tivantinib] was tested, and the “EC50, CellTiter-Glo” value [1] was greater than 1000 nM, the “EC50, CellTiter-Glo” value [2] was 639 nM and the “EC50, CellTiter-Glo” value [3] was 991 nM. For the same compound, the “EC50, CellTiter-Glo” value [4] was 744 nM, the “EC50, CellTiter-Glo” value [5] was 528 nM and the “EC50, CellTiter-Glo” value [7] was 519 nM. For the same compound, the “EC50, CellTiter-Glo” value [8] was 318 nM, the “EC50, CellTiter-Glo” value [9] was 554 nM and the “EC50, CellTiter-Glo” value [10] was 391 nM. The “EC50, CellTiter-Glo” value [11] was 552 nM, the “EC50, CellTiter-Glo” value [12] was 613 nM and the “EC50, CellTiter-Glo” value [13] was 387 nM. It also gave a normalised viability ([14]; 300 nM) of 97.9%, a normalised viability ([15]; 300 nM) of 98.3% and a normalised viability ([16]; 300 nM) of 68.8%. For the same compound, the normalised viability ([17]; 300 nM) was 102%, the normalised viability ([18]; 300 nM) was 90.7% and the normalised viability ([19]; 300 nM) was 49.5%. It also gave a normalised viability ([20]; 100 nM) of 112%, a normalised viability ([21]; 100 nM) of 104% and a normalised viability ([22]; 100 nM) of 77.2%. It also gave a normalised viability ([23]; 100 nM) of 109%, a normalised viability ([24]; 100 nM) of 106% and a normalised viability ([25]; 100 nM) of 78.1%. The normalised viability ([26]; 0.1 nM) was 105%, the normalised viability ([27]; 0.1 nM) was 90.1% and the normalised viability ([28]; 0.1 nM) was 106%. It also gave a normalised viability ([29]; 0.1 nM) of 107%, a normalised viability ([30]; 0.1 nM) of 85.6% and a normalised viability ([31]; 0.1 nM) of 86.3%. For the same compound, the normalised viability ([32]; 0.1 nM) was 83.2%, the normalised viability ([33]; 0.1 nM) was 101% and the normalised viability ([34]; 0.1 nM) was 110%. It also gave a normalised viability ([35]; 0.1 nM) of 85.6% and a normalised viability ([36]; 0.1 nM) of 95%.

In the case of `CC[C@]1(O)C[C@H]2CN(CCc3c([nH]c4ccccc34)[C@@](C(=O)OC)(c3cc4c(cc3OC)N(C=O)[C@H]3[C@@](O)(C(=O)OC)[C@H](OC(C)=O)[C@]5(CC)C=CCN6CC[C@]43[C@@H]65)C2)C1` [Vincristine], the “EC50, CellTiter-Glo” value [1] is reported as 7.55 nM, the “EC50, CellTiter-Glo” value [2] is reported as 1.71 nM and the “EC50, CellTiter-Glo” value [3] is reported as 3.26 nM. The “EC50, CellTiter-Glo” value [4] was 57.3 nM, the “EC50, CellTiter-Glo” value [5] was 2.7 nM and the “EC50, CellTiter-Glo” value [6] was 2.89 nM. For the same compound, the “EC50, CellTiter-Glo” value [7] was 16.2 nM, the “EC50, CellTiter-Glo” value [8] was 2.93 nM and the “EC50, CellTiter-Glo” value [9] was 11.6 nM. For the same compound, the “EC50, CellTiter-Glo” value [10] was 11.6 nM, the “EC50, CellTiter-Glo” value [11] was 6.53 nM and the “EC50, CellTiter-Glo” value [12] was 2.18 nM. For the same compound, the “EC50, CellTiter-Glo” value [13] was 2.33 nM, the normalised viability ([14]; 300 nM) was 20.4% and the normalised viability ([14]; 3000 nM) was 26.8%. The normalised viability ([15]; 300 nM) was 17.2%, the normalised viability ([15]; 3000 nM) was 10.4% and the normalised viability ([16]; 300 nM) was 40.6%. It also gave a normalised viability ([16]; 3000 nM) of 38.1%, a normalised viability ([17]; 300 nM) of 14.8% and a normalised viability ([17]; 3000 nM) of 6.84%. The normalised viability ([18]; 300 nM) was 36.6%, the normalised viability ([18]; 3000 nM) was 38.9% and the normalised viability ([19]; 300 nM) was 36%. For the same compound, the normalised viability ([19]; 3000 nM) was 30.5%, the normalised viability ([20]; 100 nM) was 16% and the normalised viability ([20]; 1000 nM) was 26%. It also gave a normalised viability ([21]; 100 nM) of 27%, a normalised viability ([21]; 1000 nM) of 10.3% and a normalised viability ([22]; 100 nM) of 43.9%. The normalised viability ([22]; 1000 nM) was 34.7%, the normalised viability ([23]; 100 nM) was 34.1% and the normalised viability ([23]; 1000 nM) was 8.18%. For the same compound, the normalised viability ([24]; 100 nM) was 36.1%, the normalised viability ([24]; 1000 nM) was 43.1% and the normalised viability ([25]; 100 nM) was 34.3%. For the same compound, the normalised viability ([25]; 1000 nM) was 36.4%, the normalised viability ([26]; 0.1 nM) was 93.1% and the normalised viability ([26]; 1 nM) was 93.5%. It also gave a normalised viability ([27]; 0.1 nM) of 77.9%, a normalised viability ([27]; 1 nM) of 57.7% and a normalised viability ([28]; 0.1 nM) of 103%. It also gave a normalised viability ([28]; 1 nM) of 93.8%, a normalised viability ([29]; 0.1 nM) of 97.6% and a normalised viability ([29]; 1 nM) of 88.9%. For the same compound, the normalised viability ([30]; 0.1 nM) was 119%, the normalised viability ([30]; 1 nM) was 93.9% and the normalised viability ([31]; 0.1 nM) was 74.4%. The normalised viability ([31]; 1 nM) was 79.4%, the normalised viability ([32]; 0.1 nM) was 90% and the normalised viability ([32]; 1 nM) was 95.3%. For the same compound, the normalised viability ([33]; 0.1 nM) was 120%, the normalised viability ([33]; 1 nM) was 92.6% and the normalised viability ([34]; 0.1 nM) was 87.5%. It also gave a normalised viability ([34]; 1 nM) of 49.2%, a normalised viability ([35]; 0.1 nM) of 99.7% and a normalised viability ([35]; 1 nM) of 91%. It also gave a normalised viability ([36]; 0.1 nM) of 87.9% and a normalised viability ([36]; 1 nM) of 25.5%.
